Reference: publication PMC8767159, “Multiparameter Optimization of Trypanocidal Cruzain Inhibitors With In Vivo Activity and Favorable Pharmacokinetics” (Frontiers in Pharmacology, 2022)
Read-outs that look alike come from different tables or passages of the source.

Key:
[1] = target: T1, cruzain (Trypanosoma cruzi, UniProt P25779); assay: Cruzain enzyme inhibition assay (cleavage of fluorogenic substrate Z-FR-AMC); format: biochemical; conditions: for % cruzain inhibition, 0% Triton / % cruzain inhibition, 0.01% Triton / % cruzain inhibition, 0.1% Triton: Table S1; for % cruzain inhibition, 0% Triton: 0% Triton X-100; for % cruzain inhibition, 0.01% Triton: 0.01% Triton X-100; for % cruzain inhibition, 0.1% Triton: 0.1% Triton X-100; for inhibition at 100 µM: compound 100 µM, mean of three measures; for Mechanism of cruzain inhibition (Lineweaver-Burk plots): eight substrate and four inhibitor concentrations
T1 construct: made in house; host or cells: Escherichia coli (strain M15)
T1 sequence (P25779 123-337 limits assumed): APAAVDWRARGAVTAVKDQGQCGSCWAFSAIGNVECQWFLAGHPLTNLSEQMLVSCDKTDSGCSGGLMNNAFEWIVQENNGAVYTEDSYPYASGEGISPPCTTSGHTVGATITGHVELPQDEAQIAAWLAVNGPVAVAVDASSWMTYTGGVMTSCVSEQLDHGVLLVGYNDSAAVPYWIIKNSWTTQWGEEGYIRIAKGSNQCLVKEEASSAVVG
In short: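 Recombinant C-terminally truncated cruzain, activated from pro-enzyme, assayed in 0.1 M sodium acetate pH 5.5 with 5 mM DTT and 0.01% Triton X-100 (also run at 0 and 0.1%) at 30°C. Z-FR-AMC cleavage followed 5 min (ex 355/em 460 nm); IC50 from initial rates versus DMSO, ≥6 concentrations in triplicate; single-dose at 100 μM.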

[2] = Parallel artificial membrane permeability assay (PAMPA); format: in vitro ADME; parameters: PAMPA: unit: 1e-6 cm/s; conditions: for PAMPA: unit not given
Protocol: The permeability of the compounds was assessed using the PAMPA method ([Yu et al., 2015]). The test compounds were dissolved in DMSO to a concentration of 5 mM. Next, the compounds were diluted in a stock plate in saline phosphate buffer (PBS), pH 6.5, containing 1% DMSO to a concentration of 1 µM. Then, 300 µl of each test compound was added to the donor plate. Afterward, 200 µl of PBS buffer, pH 7.4, was added to the acceptor plate. The donor plate was attached to the acceptor plate. The assembled acceptor-donor plate was then incubated at 37°C for 5 h under gentle agitation. To analyze the concentration of the compounds by mass spectrometry, two analysis plates (one for the donor and another for the acceptor plate) containing 300 μl of MEOH:ACN 50:50 were prepared. To the donor analysis plate, 90 µl of PBS, pH 6.5, and 10 µl of the content of the donor plate were added. For the acceptor analysis plate, 100 µl of the content of the acceptor plate was added. To monitor any potential decomposition/intrinsic instability of the test compounds in solution, samples from the stock plate were subjected to LC-MS/MS. The compounds that presented Pe ≥ 1.5 × 10^−6 cm/s were classified as permeable, while compounds that presented Pe < 1.5 × 10^−6 cm/s were considered poorly permeable or nonpermeable.

[3] = Experimental distribution coefficient (eLogD) by LC retention time; format: physicochemical; conditions: for chromatographic logD: C18 column (LC retention time)
Protocol: For the eLogD assays ([Waring, 2010]), each compound (5 μl) from a 5 mM stock solution was diluted in 245 μl of a solution containing buffers A (5% MeOH, 10 mM ammonium acetate, pH 7.4) and B (100% MeOH, pH 7.4) (50:50). Nine control compounds with known eLogD and column retention times (acyclovir, atenolol, antipyrine, fluconazole, metoprolol, carbamazepine, ketoconazole, tolnaftate, and amiodarone; eLogD values ranging from −1.86 to 6.1) were subjected to LC-MS/MS in triplicate before and after the analysis of the test compounds. Retention times were recorded for each control and test compound in a C18 column. The retention time of each control compound was plotted against the respective eLogD values described in the literature ([Lombardo et al., 2002]; [Lombardo et al., 2004]; [Alelyunas et al., 2010]). The resulting linear equation (y = mx + b) was used to calculate the eLogD values of the test compounds, in which x is the retention time in minutes and y is the eLogD value.

[4] = 1.5 nM cruzain, 5.0 µM Z-FR-AMC, mean ± SD of 2–3 assays, read-out: IC50 (µM) against cruzain
[5] = Table S2, substrate 2.5 µM, read-out: IC50 (µM) cruzain at [S] 2.5 µM
[6] = Table S2, substrate 5 µM, read-out: IC50 (µM) cruzain at [S] 5 µM
[7] = Table S2, substrate 10 µM, read-out: IC50 (µM) cruzain at [S] 10 µM
[8] = Table S2, substrate 15 µM, read-out: IC50 (µM) cruzain at [S] 15 µM
[9] = Table S2, substrate 20 µM, read-out: IC50 (µM) cruzain at [S] 20 µM
[10] = Table S2, substrate 40 µM, read-out: IC50 (µM) cruzain at [S] 40 µM
[11] = PAMPA, Table 3, donor pH 6.5, acceptor pH 7.4, 5 h

SMILES | IC50 [1, 4] [µM] | % cruzain inhibition, 0% Triton [1] [%] | % cruzain inhibition, 0.01% Triton [1] [%] | % cruzain inhibition, 0.1% Triton [1] [%] | IC50 [1, 5] [µM] | IC50 [1, 6] [µM] | IC50 [1, 7] [µM] | IC50 [1, 8] [µM] | IC50 [1, 9] [µM] | IC50 [1, 10] [µM] | inhibition at 100 µM [1] [%] | Mechanism of cruzain inhibition (Lineweaver-Burk plots) [1] | Papp at 5 h, 1 µM [2, 11] [×10⁻⁶ cm/s] | PAMPA ([2]; Table S5) | chromatographic logD ([3]; pH 7.4, Table 3, pH 7.4) | eLogD ([3]; Table S5) | Papp at 5 h, 1 µM ([2]; Table S5, unit inferred) [×10⁻⁶ cm/s] | chromatographic logD ([3]; pH 7.4, Table S5) | eLogD ([3]; Table 3, pH 7.4)
O=C(COc1ccccc1)NCCc1nc2ccccc2n1CCOc1ccccc1 [Compound 20] | 1.04 ± 0.7 | 95.2 ± 0.6 | 95.9 ± 1.7 | 96.0 ± 1.1 | 0.5 ± 1.3 | 0.4 ± 1.2 | 1 ± 1.5 | 0.8 ± 1.7 | 0.3 | 0.5 ± 1.2 | 92 | noncompetitive | 4.3 | 4.30 | 4.24 | 4.24 | – | – | –
Cn1c(CCNC(=O)COc2ccccc2)nc2ccccc21 [Compound 25] | 8.6 ± 1.7 | – | – | – | – | – | – | – | – | – | 87 | competitive | 1.46 | – | 2.93 | 2.93 | 6.55 | – | –
O=C(COc1cccc(NC(=O)CCCO)c1)NCCc1nc2ccccc2[nH]1 [Compound 7] | – | – | – | – | – | – | – | – | – | – | 75 | – | – | – | – | – | 0.03 | 2.23 | –
NC(=O)Cn1c(CCNC(=O)COc2ccccc2)nc2ccccc21 [Compound 28] | 12.1 ± 2.4 | – | – | – | – | – | – | – | – | – | 81 | – | 0.71 | 0.71 | 2.16 | 2.16 | – | – | –
O=C(COc1ccc2ccc(O)cc2c1)NCCc1nc2ccccc2[nH]1 [Compound 11] | 2.7 ± 0.7 | – | – | – | – | – | – | – | – | – | 96 | – | 0.17 | – | – | 3.37 | 0.13 | – | 2.26
O=C(COc1ccc2cc(O)ccc2c1)NCCc1nc2ccccc2[nH]1 [Compound 10] | 3.4 ± 0.9 | – | – | – | – | – | – | – | – | – | 90 | – | 0.21 | 0.21 | 3.17 | 3.17 | – | – | –
CC(=O)Nc1cccc(OCC(=O)NCCc2nc3ccccc3[nH]2)c1 [Compound 3] | 28.1 ± 3.1 | – | – | – | – | – | – | – | – | – | 70 | – | 0.17 | 0.17 | 2.26 | 2.26 | – | – | –
C=CCCn1c(CCNC(=O)COc2ccccc2)nc2ccccc21 [Compound 27] | 13.7 ± 1.4 | – | – | – | 12.4 ± 2.2 | 7.5 ± 1.2 | 14.7 ± 1.8 | 11.2 ± 1.5 | 10.2 ± 1.5 | 8.9 ± 3.1 | 79 | noncompetitive | 9.06 | 9.06 | 3.75 | 3.75 | – | – | –
Nc1cccc(OCC(=O)NCCc2nc3ccccc3[nH]2)c1 [Compound 9] | 18.2 ± 1.8 | – | – | – | – | – | – | – | – | – | 90 | – | 0.38 | 0.38 | 1.88 | 1.88 | – | – | –
O=C(COc1ccccc1Br)NCCc1nc2ccccc2n1CCOc1ccccc1Br [Compound 23] | – | 52.1 ± 1.3 | 53.2 ± 1.9 | 55.5 ± 5.2 | – | – | – | – | – | – | 49 | – | – | – | – | – | 0.08 | 4.69 | –
CC(=O)Nc1ccc(OCC(=O)NCCc2nc3ccccc3[nH]2)cc1 [Compound 2] | 4.5 ± 0.5 | – | – | – | – | – | – | – | – | – | 79 | – | 0.21 | 0.21 | 1.92 | 1.92 | – | – | –
COCCn1c(CCNC(=O)COc2ccccc2)nc2ccccc21 [Compound 29] | 8.8 ± 1.8 | – | – | – | – | – | – | – | – | – | 79 | – | – | – | – | – | 9.35 | 3.13 | –
O=C(COc1cccc(N2C(=O)CCC2=O)c1)NCCc1nc2ccccc2[nH]1 [Compound 6] | – | – | – | – | – | – | – | – | – | – | 38 | – | – | – | – | – | 0.2 | 1.8 | –
O=C(COc1ccccc1)NCCc1nc2ccccc2n1CCOc1ccccc1Br [Compound 19] | – | 73.4 ± 2.5 | 72.1 ± 1.7 | 77.5 ± 2.2 | – | – | – | – | – | – | 72 | – | – | – | – | – | 0.08 | 4.5 | –
O=C(COc1cccc([N+](=O)[O-])c1)NCCc1nc2ccccc2[nH]1 [Compound 8] | 13.5 ± 2.6 | – | – | – | – | – | – | – | – | – | 83 | – | 2.17 | 2.17 | 2.98 | 2.98 | – | – | –
O=C(COc1ccccc1)NCCc1nc2ccccc2n1Cc1ccccc1 [Compound 26] | 1.1 ± 0.2 | – | – | – | 1.6 ± 0.1 | 1.8 ± 0.1 | 1.9 ± 0.2 | 1.4 ± 0.5 | 2.4 ± 0.9 | 1.2 ± 0.5 | 77 | noncompetitive | 8.72 | 8.72 | 4.06 | 4.06 | – | – | –
O=C(COc1ccc(NC(=O)CCCO)cc1)NCCc1nc2ccccc2[nH]1 [Compound 5] | – | – | – | – | – | – | – | – | – | – | 87 | – | – | – | – | – | 0.02 | 1.83 | –
O=C(COc1ccccc1)NCCc1nc2ccccc2n1CCOCc1ccccc1 [Compound 21] | 1.69 ± 0.4 | 80.3 ± 1.4 | 85.5 ± 2.3 | 84.6 ± 1.3 | – | – | – | – | – | – | 76 | – | – | – | – | – | 3.98 | 4.24 | –
